Measurements published in patent publication US9296716B2, “Androgen receptor ligands” (THE PROVOST, FELLOWS, FOUNDATION SCHOLARS, & THE OTHER …, priority 2011, dated 2016).

Each molecule was assayed against T1, AR-LBD wt (Homo sapiens, UniProt P10275) (assay: Lanthascreen TR-FRET AR coactivator (D11-FxxLF) assay, AR-LBD wt). Details: TR-FRET in agonist and antagonist mode.
T1 sequence (P10275 669-900 limits assumed): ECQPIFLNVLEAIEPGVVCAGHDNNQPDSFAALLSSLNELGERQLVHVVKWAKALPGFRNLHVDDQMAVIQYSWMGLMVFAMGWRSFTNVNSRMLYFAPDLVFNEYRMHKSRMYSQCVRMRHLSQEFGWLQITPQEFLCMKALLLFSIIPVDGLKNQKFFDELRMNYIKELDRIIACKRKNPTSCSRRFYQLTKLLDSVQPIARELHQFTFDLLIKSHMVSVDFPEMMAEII
Assay type: biochemical

| type of AR antagonism (full / partial) | SMILES |
| --- | --- |
| full AR antagonists | C/C(=N\NC(=O)c1cc2ccccc2cc1O)C1C(=O)c2ccccc2C1=O [MDG603] |

Same assay, conditions: TR-FRET, D11-FxxLF peptide, DHT = EC80; read-out: Activity (AR wt TR-FRET)

| SMILES | IC50 [µM] |
| --- | --- |
| CC(C)(C)c1ccc(O)c(/C=N/NC(=O)c2cc3ccccc3cc2O)c1 [MDG610] | > 100 |
| O=C(N/N=C/c1cccc(Cl)c1Cl)c1cc2ccccc2cc1O [MDG496] | > 100 |
| COc1cc(Br)cc(/C=N/NC(=O)c2cc3c(ccc4ccccc43)o2)c1O [MDG501] | > 100 |
| COc1cccc(/C=N/NC(=O)c2cc3c(ccc4ccccc43)o2)c1 [MDG505, N′-(3-methoxybenzylidene)naphtho[2,1-b]furan-2-carbohydrazide] | > 100 |
| CCOc1c(Cl)cc(/C=N/NC(=O)c2cc3c(ccc4ccccc43)o2)cc1Cl [MDG514] | > 100 |
| COc1ccc(Br)cc1/C=N/NC(=O)c1cc2ccccc2cc1O [MDG620] | > 100 |
| CCCOc1ccc(/C=N/NC(=O)c2cc3c(ccc4ccccc43)o2)cc1OCC [MDG510] | > 100 |
| CCCOc1ccc(/C=N/NC(=O)c2cc3c(ccc4ccccc43)o2)cc1OC [MDG509] | > 100 |
| CCOc1ccc(/C=N/NC(=O)c2cc3c(ccc4ccccc43)o2)cc1 [MDG512] | > 100 |
| COc1ccc(/C=N/NC(=O)c2cc3c(ccc4ccccc43)o2)cc1C [MDG504] | > 100 |
| O=C(N/N=C/c1cccc(OCc2ccccc2)c1)c1cc2ccccc2cc1O [MDG495] | > 100 |
| O=C(N/N=C/c1cc(Cl)ccc1O)c1ccc2ccccc2c1 [MDG622] | > 100 |
| COc1cc(Cl)cc(/C=N/NC(=O)c2cc3ccccc3cc2O)c1O [MDG615] | > 100 |
| COc1ccc(/C=N/NC(=O)c2cc3c(ccc4ccccc43)o2)cc1O [MDG507] | > 100 |
| CCN(CC)c1ccc(/C=N/NC(=O)c2cc3ccccc3cc2O)cc1 [MDG493] | > 100 |
| O=C(N/N=C/c1ccc(OCc2ccccc2)cc1)c1cc2c(ccc3ccccc32)o1 [MDG499] | > 100 |
| COc1cc(/C=N/NC(=O)c2cc3c(ccc4ccccc43)o2)cc(OC)c1OC [MDG511] | > 100 |

| SMILES | IC50 [µM] |
| --- | --- |
| O=C(N/N=C/c1cccnc1)c1cc2ccccc2cc1O [MDG482] | > 100 |
| COc1cc(/C=N/NC(=O)c2cc3c(ccc4ccccc43)o2)c(Br)cc1O [MDG516] | > 100 |
| O=C(N/N=C/c1ccc(O)c(Br)c1)c1cc2c(ccc3ccccc32)o1 [MDG500] | > 100 |
| COc1ccc(C(=O)NNC(=O)c2cc3ccccc3cc2O)cc1 [MDG484] | > 100 |
| COc1c(Cl)cc(/C=N/NC(=O)c2cc3c(ccc4ccccc43)o2)cc1Cl [MDG513] | > 100 |
| C/C(=N\NC(=O)c1cc2ccccc2cc1O)C1C(=O)c2ccccc2C1=O [MDG603] | 11.3 ± 2.6 |
| O=C(N/N=C/c1cc(Cl)ccc1[N+](=O)[O-])c1cc2ccccc2cc1O [MDG633] | > 100 |
| O=C(N/N=C(\c1ccccc1)c1ccc2ccccc2c1)c1cc2ccccc2cc1O [MDG627] | > 100 |
| C/C(=N\NC(=O)c1cc2ccccc2cc1O)c1ccc2ccccc2c1 [MDG626] | > 100 |
| COc1ccc(/C=N/NC(=O)c2cc3c(ccc4ccccc43)o2)c2ccccc12 [MDG503] | > 100 |
| CC(C)Oc1ccc(/C=N/NC(=O)c2cc3c(ccc4ccccc43)o2)cc1 [MDG502] | > 100 |
| COc1cc(/C=N/NC(=O)c2cc3ccccc3cc2O)cc(OC)c1O [MDG489, 3-hydroxy-N′-(4-hydroxy-3,5-dimethoxybenzylidene)-2-naphthohydrazide] | > 100 |
| COc1cc(/C=N/NC(=O)c2cc3c(ccc4ccccc43)o2)cc(Cl)c1OCc1ccccc1 [MDG515] | > 100 |
| CCOc1cc(/C=N/NC(=O)c2cc3ccccc3o2)cc(I)c1OC [MDG598] | > 100 |
| O=C(N/N=C/c1ccc(Cl)c([N+](=O)[O-])c1)c1cc2ccccc2cc1O [MDG623] | > 100 |
| O=C(N/N=C/c1cc2ccccc2cc1O)c1ccc(C(=O)N/N=C/c2cc3ccccc3cc2O)cc1 [MDG602] | > 100 |
| C/C(=N\NC(=O)c1cc2ccccc2cc1O)c1ccco1 [MDG604] | > 100 |

Results, then the molecule that gave them:

| IC50 [µM] | SMILES |
| --- | --- |
| > 100 | COc1ccc(/C=N/NC(=O)c2cc3ccccc3cc2O)cc1O [MDG494] |
| > 100 | O=C(N/N=C/c1cccc2ccccc12)c1cc2ccccc2cc1O [MDG607] |
| > 200 | O=C(N/N=C/c1cccc(Cl)c1O)c1cc2ccccc2cc1O [MDG618, 3-hydroxy-N′-(2-hydroxy-3-chlorobenzylidene)-2-naphthohydrazide] |
| > 100 | Cc1ccccc1/C=N/NC(=O)c1cc2ccccc2cc1O [MDG492] |
| > 100 | O=C(N/N=C/c1ccccc1C(=O)O)c1cc2ccccc2cc1O [MDG490] |
| > 100 | O=C(N/N=C/c1ccccc1)c1cc2ccccc2cc1O [MDG628, 3-hydroxy-N′-benzylidene-2-naphthohydrazide] |
| > 100 | O=C(N/N=C/c1cccc(O)c1O)c1ccccc1O [MDG486] |
| > 100 | O=C(N/N=C/c1ccc2ccccc2c1)c1ccccc1O [MDG487] |
| > 100 | CCOc1cc(/C=N/NC(=O)c2cc3ccccc3cc2O)ccc1O [MDG481] |
| > 100 | COc1ccccc1/C=N/NC(=O)c1cc2ccccc2cc1O [MDG619] |
| > 100 | C/C(=N\NC(=O)c1cc2ccccc2cc1O)c1cc(Cl)ccc1O [MDG621, 3-hydroxy-N′-[(1E)-1-(2-hydroxy-5-chlorophenyl)ethylidene]-2-naphthohydrazide] |
| > 100 | O=C(N/N=C/c1ccc2ccccc2c1)c1cc2ccccc2cc1O [MDG625] |
| > 100 | Cc1ccc(O)c(/C=N/NC(=O)c2cc3ccccc3cc2O)c1 [MDG609] |
| > 100 | Nc1ccccc1/C=N/NC(=O)c1cc2ccccc2cc1O [MDG632] |
| > 100 | O=C(N/N=C/c1cc(I)ccc1O)c1cc2ccccc2cc1O [MDG613] |
| > 100 | O=C(N/N=C/c1cccc(O)c1O)c1ccccc1 [MDG485] |
| > 100 | COc1ccccc1/C=N/NC(=O)c1ccc2ccccc2c1O [MDG599] |
| > 100 | O=C(N/N=C/c1ccc2ccccc2c1O)c1cc2ccccc2cc1O [MDG624] |
| > 100 | COc1cc2ccccc2cc1C(=O)N/N=C/c1ccccc1O [MDG600] |
| > 100 | O=C(N/N=C/c1ccccc1[N+](=O)[O-])c1cc2ccccc2cc1O [MDG631] |
| > 100 | O=C(C/C=N/C=N/NC(=O)c1ccccc1O)c1ccccc1O [MDG601] |
| > 100 | CCOc1ccc(/C=N/NC(=O)c2cc3ccccc3cc2O)cc1O [MDG488] |
| > 100 | Cc1cccc(/C=N/NC(=O)c2cc3ccccc3cc2O)c1 [MDG497] |
